Patent publication US6545032B1, “Synthesis of [3,5,7]-H-imidazo[1,5-a] imidazol-2(3H)-one compounds” (Torrey Pines Institute for Molecular Studies, priority 1999, dated 2003)

Key:
[1] = biological target: T1, kappa opiate receptor (Cavia porcellus, UniProt P41144); assay: Inhibition of tritiated U69,593 binding to the kappa opiate receptor in guinea pig brain homogenates; set-up: Mean: unit not given beside the values; settings: 3 nm tritiated U69,593, guinea pig brain membranes; for % Bound: [3H]U69,593 bound; for % Inhibition: inhibition of [3H]U69,593 binding; for Mean: mean bound radioactivity of [3H]U69,593, 2.5 hours 25° C.; for Minus NSB: mean minus non-specific binding
T1 construct: guinea pig cortices and cerebella were homogenized in 40 mL of Buffer A; from tissue; host or cells: guinea pig cortices and cerebella, crude membrane suspension
T1 sequence (P41144 whole entry): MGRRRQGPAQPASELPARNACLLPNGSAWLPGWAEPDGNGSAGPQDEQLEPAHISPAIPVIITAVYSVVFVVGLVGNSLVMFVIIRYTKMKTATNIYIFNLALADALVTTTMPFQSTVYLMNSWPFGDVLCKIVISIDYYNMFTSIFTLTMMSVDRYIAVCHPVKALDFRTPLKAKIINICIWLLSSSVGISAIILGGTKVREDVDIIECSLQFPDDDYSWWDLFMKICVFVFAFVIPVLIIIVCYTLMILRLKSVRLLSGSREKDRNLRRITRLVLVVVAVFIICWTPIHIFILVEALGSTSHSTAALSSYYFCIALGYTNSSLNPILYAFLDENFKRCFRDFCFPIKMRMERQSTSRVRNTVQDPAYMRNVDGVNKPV
Method in brief: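 Guinea pig cortex and cerebellum membranes in 50 mM Tris-HCl pH 7.4 incubated with 3 nM [³H]U69,593 for 2.5 h at 25 °C, then filtered and bound radioactivity counted. Unlabelled U50,488 served as competitor for standard curve and nonspecific binding.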

[2] = biological target: T2, mu opiate receptor (Rattus norvegicus, UniProt P33535); assay: Inhibition of [3H]DAMGO binding to the mu opiate receptor in rat brain homogenates; set-up: Mean: unit not given beside the values; settings: 0.08 mg of compound per milliliter, 7 nM 3H-labeled DAMGO, rat brain membranes; for % Bound: [3H]DAMGO bound; for Mean: mean bound radioactivity of [3H]DAMGO; for Minus NSB*: mean minus non-specific binding; for % Inhibition: percent inhibition of DAMGO binding
T2 construct: from tissue; host or cells: rat brain membranes/homogenate
T2 sequence (P33535 whole entry): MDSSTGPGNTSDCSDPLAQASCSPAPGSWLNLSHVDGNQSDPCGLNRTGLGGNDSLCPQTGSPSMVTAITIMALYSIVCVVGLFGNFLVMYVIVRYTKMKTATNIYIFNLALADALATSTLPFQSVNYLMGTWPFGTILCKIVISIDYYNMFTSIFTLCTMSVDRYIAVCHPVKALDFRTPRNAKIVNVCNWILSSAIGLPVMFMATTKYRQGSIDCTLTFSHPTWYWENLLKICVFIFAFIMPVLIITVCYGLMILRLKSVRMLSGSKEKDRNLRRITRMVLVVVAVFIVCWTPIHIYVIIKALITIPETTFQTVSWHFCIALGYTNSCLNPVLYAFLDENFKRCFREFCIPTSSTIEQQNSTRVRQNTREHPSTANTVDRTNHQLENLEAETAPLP
Method in brief: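 Members of an imidazo-imidazolone compound library were tested for blocking binding of [^3H]DAMGO, a mu opiate receptor-specific ligand, to rat brain membranes. Each 0.65 mL tube held 0.08 mg of compound mixture per milliliter, 0.5 mL membrane suspension (0.1 mg of protein) and 7 nM ^3H-labeled DAMGO (36 Ci/mmol) in 50 mM Tris-HCl buffer (pH 7.4).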

| SMILES | % Bound [1] [%] | % Inhibition [1] [%] | Mean [1] | Minus NSB [1] | % Bound [2] [%] | Mean [2] | Minus NSB* [2] | % Inhibition [2] [%] |
| --- | --- | --- | --- | --- | --- | --- | --- | --- |
| CC(C)c1nc(Cc2ccccc2)n2c1NC(=O)C2C(C)C (racemic) [Pool 110] | 73.451 | 26.549 | 1667.95 | 760.95 | 54 | 818.7 | 510.70 | 46 |
| CC(C)c1nc(C(C)C)n2c1NC(=O)C2C(C)C (racemic) [Pool 123] | 57.124 | 42.876 | 1498.8 | 591.80 | 55 | 832.5 | 524.50 | 45 |
| CC(C)c1nc(CCC2CCCCC2)n2c1NC(=O)C2C(C)C (stereo not drawn) [Pool 148] | 89.971 | 10.029 | 1839.1 | 932.10 | 61 | 890.8 | 582.80 | 39 |
| CC(C)Cc1nc(C(C)C)c2n1C(C(C)C)C(=O)N2 (stereo not drawn) [Pool 125] | 62.384 | 37.616 | 1553.3 | 646.30 | 48 | 763.7 | 455.70 | 52 |
| Cc1cccc(Cc2nc(C(C)C)c3n2C(C(C)C)C(=O)N3)c1 (racemic) [Pool 70] | 107.389 | −7.389 | 2019.55 | 1112.55 | 68 | 954.15 | 646.15 | 32 |
| CC(C)c1nc(CC(C)(C)C)n2c1NC(=O)C2C(C)C (stereo not drawn) [Pool 136] | 80.589 | 19.411 | 1741.9 | 834.90 | 72 | 991 | 683.00 | 28 |
| Cc1nc(Cc2ccccc2)c2n1C(C(C)C)C(=O)N2 (racemic) [Pool 63] | 84.913 | 15.087 | 1786.7 | 879.70 | 57 | 854.35 | 546.35 | 43 |
| CC(C)c1nc(C(C2CCCCC2)C2CCCCC2)n2c1NC(=O)C2C(C)C (stereo not drawn) [Pool 139] | 58.779 | 41.221 | 1515.95 | 608.95 | 65 | 928.85 | 620.85 | 35 |
| Cc1nc(C(C)C)c2n1C(CC(C)C)C(=O)N2 (stereo not drawn) [Pool 4] | 95.420 | 4.580 | 1895.55 | 988.55 | 70 | 980.1 | 672.10 | 30 |
| CCC(C)c1nc(C(C)C)c2n1C(C(C)C)C(=O)N2 (mixture of isomers) [Pool 124] | 62.630 | 37.370 | 1555.85 | 648.85 | 62 | 901.85 | 593.85 | 38 |
| Cc1nc(C(C)C)c2n1C(Cc1ccccc1)C(=O)N2 (stereo not drawn) [Pool 30] | 74.884 | 25.116 | 1682.8 | 775.80 | 65 | 929.9 | 621.90 | 35 |
| CSCCc1nc(C)n2c1NC(=O)C2C(C)C (racemic) [Pool 59] | 78.953 | 21.047 | 1724.95 | 817.95 | 59 | 874.75 | 566.75 | 41 |
